Results from US4724229A, “Arg-arg-arg-vasopressin antagonists” (Smithkline Beckman Corporation, priority 1986, dated 1988).
pKi: −log10 of the molar value. Numbered stars: 1 amine (or outer) side, 2 acyl side, 3 side chain; on linkers, the order of the positions; unused ones are H or OH. Bridge positions count the residues as written; N and C are the ends. Square brackets hold non-standard residues; d marks the D form. Peptide text beside a SMILES is read from it. X1 = O=C(CC1(S[*:2])CCCCC1)[*:1]

How the values were obtained:
[1] = biological target: T1, receptor in the human liver membrane tissue (V1) (Homo sapiens, UniProt P37288); assay: Binding to human liver membranes V1 (Kbind)
T1 construct: in the human liver membrane tissue; from tissue; host or cells: human liver membranes
T1 sequence (P37288 whole entry): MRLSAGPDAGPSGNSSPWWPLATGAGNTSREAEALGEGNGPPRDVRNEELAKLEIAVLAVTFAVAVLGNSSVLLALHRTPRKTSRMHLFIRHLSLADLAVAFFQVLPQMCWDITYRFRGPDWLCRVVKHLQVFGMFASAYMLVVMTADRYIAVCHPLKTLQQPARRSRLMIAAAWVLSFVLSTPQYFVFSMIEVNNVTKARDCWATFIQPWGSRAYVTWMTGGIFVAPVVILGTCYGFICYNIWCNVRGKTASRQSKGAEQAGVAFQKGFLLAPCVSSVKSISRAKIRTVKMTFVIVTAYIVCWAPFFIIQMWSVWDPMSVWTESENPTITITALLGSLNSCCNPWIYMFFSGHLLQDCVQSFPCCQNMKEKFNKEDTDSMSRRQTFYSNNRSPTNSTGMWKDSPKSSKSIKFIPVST
Protocol: (§1) V2 -antagonistic activity toward the natural anti-diuretic hormone (anti-ADH activity) is determined, in vitro, in the medullary tissue of hog or human kidneys and, in vivo, in the hydropenic rat. The in vitro assay procedures for vasopressin stimulated adenylate cyclase activation or vasopressin binding activity are described by F. Stassen et al., J. Pharmacology and Experimental Therapeutics, 223, 50-54 (1982). V1 -antagonistic activity is determined by procedures using the rat thoracic aorta tissue and plasma membranes of rat liver. These procedures are described in the noted Stassen publication and in a publication at the 1st International Conference on Diuretics, Miami, Fla., March (1984). Oxytocin antagonism is determined as described by W. Sawyer et al., Endocrinology, 106 81 (1979).
^d Kbind is a measure of the affinity of a ligand for a receptor
in the human liver membrane tissue. It is derived from the equation in […]

[2] = biological target: T2, receptor in the porcine renal medullary membrane (vasopressin V2 -receptors) (Sus scrofa, UniProt P32307); assay: [3H]LVP binding, porcine renal medullary membrane (Kbind); conditions: competition with [3H]LVP binding, Kb = IC50/(1 + L/KD)
T2 construct: in the porcine renal medullary membrane; from tissue; host or cells: porcine renal medullary membranes
T2 sequence (P32307 whole entry): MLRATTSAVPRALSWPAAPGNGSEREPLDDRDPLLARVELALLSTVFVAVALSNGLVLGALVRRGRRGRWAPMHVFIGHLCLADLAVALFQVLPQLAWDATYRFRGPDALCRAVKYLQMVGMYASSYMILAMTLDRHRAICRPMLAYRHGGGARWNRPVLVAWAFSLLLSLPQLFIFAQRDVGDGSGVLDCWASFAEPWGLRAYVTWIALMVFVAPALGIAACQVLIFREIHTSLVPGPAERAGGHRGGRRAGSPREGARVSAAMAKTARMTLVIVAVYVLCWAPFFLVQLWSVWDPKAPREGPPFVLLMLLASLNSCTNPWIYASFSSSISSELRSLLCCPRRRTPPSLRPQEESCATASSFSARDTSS
Protocol: as §1, with “(1979). | ^a Kbind is a measure of the affinity of a ligand for a receptor | in the porcine renal medullary membrane. It is derived from the equation | for competitive inhibition Kb = IC50 /(1 + L/KD) where | IC50 is the concentration of the ligand for 50% inhibition of [^ | H]LVP binding, L is the concentration of the ligand, and KD is the | dissociation constant of [^3 H]LVP.” for “(1979).”

[3] = biological target: T3, LVP stimulated adenylate cyclase of pig kidney medullary membrane (Sus scrofa, UniProt P32307); assay: Inhibition of LVP stimulated adenylate cyclase of pig kidney medullary membrane; assay type: biochemical
T3 construct: stimulated adenylate cyclase of pig kidney medullary membrane; from tissue; host or cells: pig kidney medullary membranes
T3 sequence (P32307 whole entry): as above
Protocol: as §1, with “(1979). | ^b Ki is the inhibition constant measured for inhibition of LVP | stimulated adenylate cyclase of pig kidney medullary membrane, and is | derived from the equation for competitive inhibition as described.” for “(1979).”

Compound	pKi [1]	pKi [2]	pKi [3]
CCOc1ccc(C[C@H]2NC(=O)CC3(CCCCC3)SSC[C@@H](C(=O)N[C@@H](CCCNC(=N)N)C(=O)N[C@@H](CCCNC(=N)N)C(=O)N[C@@H](CCCNC(=N)N)C(N)=O)NC(=O)[C@H](CC(N)=O)NC(=O)[C@H](C(C)C)NC(=O)[C@H](Cc3ccccc3)NC2=O)cc1 [No. 1, [1-(β-mercapto-β,β-cyclopentamethylenepropionic acid)-2-(O-ethyl)-D-tyrosine-4-valine-7-arginine-8-arginine-9-arginine]-vasopressin] ([dY](Et)FVNCRRR-NH2; linker N-5 via X1)	8.36	8.59	8.81
CCOc1ccc(C[C@H]2NC(=O)CC3(CCCCC3)SSC[C@@H](C(=O)N[C@@H](CCCNC(=N)N)C(N)=O)NC(=O)[C@H](CC(N)=O)NC(=O)[C@H](C(C)C)NC(=O)[C@H](Cc3ccccc3)NC2=O)cc1 [compound 2] ([dY](Et)FVNCR-NH2; linker N-5 via X1)	8.89	8.04	–
CCOc1ccc(C[C@H]2NC(=O)CC3(CCCCC3)SSC[C@@H](C(=O)N[C@@H](CCCNC(=N)N)C(=O)N[C@@H](CCCNC(=N)N)C(N)=O)NC(=O)[C@H](CC(N)=O)NC(=O)[C@H](C(C)C)NC(=O)[C@H](Cc3ccccc3)NC2=O)cc1 [compound 3] ([dY](Et)FVNCRR-NH2; linker N-5 via X1)	8.89	8.47	8.77
